In patent US20230092890A1, “1, 3, 4-Oxadiazole derivative compounds as histone deacetylase 6 inhibitor, and the pharmaceutical composition comprising the same” (Chong Kun Dang Pharmaceutical Corp., priority 2019, published 2023):

Columns and labels:
HDAC6 human recombinant = biological target: T1, HDAC6 human recombinant (Homo sapiens, UniProt Q9UBN7); assay: HDAC enzyme activity inhibition (in vitro), HDAC6 assay; format: biochemical; conditions: samples at 0.1, 1, 10, 100 and 1000 nM; 37° C. 60 minutes; fluorescence Ex 390, Em 460; read-out: HDAC6 IC50
T1 construct: purchased Calbiochem 382180
T1 sequence (Q9UBN7 1-1215): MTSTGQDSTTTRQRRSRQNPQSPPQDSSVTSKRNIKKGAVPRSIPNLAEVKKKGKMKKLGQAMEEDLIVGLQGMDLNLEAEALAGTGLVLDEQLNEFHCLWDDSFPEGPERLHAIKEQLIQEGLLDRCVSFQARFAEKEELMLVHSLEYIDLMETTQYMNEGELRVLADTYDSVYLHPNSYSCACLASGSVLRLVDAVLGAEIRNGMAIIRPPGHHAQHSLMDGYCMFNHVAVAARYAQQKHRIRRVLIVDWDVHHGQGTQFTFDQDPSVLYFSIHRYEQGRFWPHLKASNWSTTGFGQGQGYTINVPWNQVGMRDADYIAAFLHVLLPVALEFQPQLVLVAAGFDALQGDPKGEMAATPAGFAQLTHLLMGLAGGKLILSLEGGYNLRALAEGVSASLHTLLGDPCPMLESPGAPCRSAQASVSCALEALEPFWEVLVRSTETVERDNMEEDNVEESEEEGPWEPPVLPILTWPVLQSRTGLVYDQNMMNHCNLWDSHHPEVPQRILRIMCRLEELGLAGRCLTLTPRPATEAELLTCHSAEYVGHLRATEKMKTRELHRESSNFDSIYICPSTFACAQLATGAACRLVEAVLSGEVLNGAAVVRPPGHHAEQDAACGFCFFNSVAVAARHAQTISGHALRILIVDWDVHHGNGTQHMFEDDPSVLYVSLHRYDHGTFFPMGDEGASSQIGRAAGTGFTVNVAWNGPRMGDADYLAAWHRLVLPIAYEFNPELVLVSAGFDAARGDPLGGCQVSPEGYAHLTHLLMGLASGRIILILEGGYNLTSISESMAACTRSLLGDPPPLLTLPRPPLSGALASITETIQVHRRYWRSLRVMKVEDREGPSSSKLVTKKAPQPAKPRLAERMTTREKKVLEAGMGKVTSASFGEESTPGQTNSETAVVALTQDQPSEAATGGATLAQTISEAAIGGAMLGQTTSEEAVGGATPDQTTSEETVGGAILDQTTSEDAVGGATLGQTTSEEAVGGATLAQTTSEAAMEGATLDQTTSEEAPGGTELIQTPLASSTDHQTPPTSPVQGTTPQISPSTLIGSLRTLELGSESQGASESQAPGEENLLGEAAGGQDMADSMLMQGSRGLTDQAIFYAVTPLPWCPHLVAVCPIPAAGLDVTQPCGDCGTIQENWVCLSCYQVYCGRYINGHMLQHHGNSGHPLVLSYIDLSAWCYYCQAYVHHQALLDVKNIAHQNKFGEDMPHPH
Procedure, shortened: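 Fluorescence (Ex 390, Em 460) read after a 37° C, 60 min enzyme reaction and a further 30 min developer step at 37° C. Uses recombinant human HDAC6; HDAC1 arm dosed at 100, 1000, 10000 nM.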

HDAC1 = biological target: T2, HDAC1 (Homo sapiens, UniProt Q13547); assay: HDAC enzyme activity inhibition (in vitro), HDAC1 Fluorimetric Drug Discovery Assay Kit; format: biochemical; conditions: samples at 100, 1000 and 10000 nM; 37° C. 60 minutes; fluorescence Ex 390, Em 460; read-out: HDAC1 IC50
T2 construct: purchased Enzolifesciences BML-AK511
Procedure, shortened: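 Fluorescence read-out (Ex 390/Em 460) after developer step, 30 min at 37° C, following a 60-min 37° C enzyme reaction. Test concentrations: HDAC1 kit, 100–10000 nM (three levels); recombinant human HDAC6, 0.1–1000 nM (five levels).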

T2 sequence (Q13547 whole entry): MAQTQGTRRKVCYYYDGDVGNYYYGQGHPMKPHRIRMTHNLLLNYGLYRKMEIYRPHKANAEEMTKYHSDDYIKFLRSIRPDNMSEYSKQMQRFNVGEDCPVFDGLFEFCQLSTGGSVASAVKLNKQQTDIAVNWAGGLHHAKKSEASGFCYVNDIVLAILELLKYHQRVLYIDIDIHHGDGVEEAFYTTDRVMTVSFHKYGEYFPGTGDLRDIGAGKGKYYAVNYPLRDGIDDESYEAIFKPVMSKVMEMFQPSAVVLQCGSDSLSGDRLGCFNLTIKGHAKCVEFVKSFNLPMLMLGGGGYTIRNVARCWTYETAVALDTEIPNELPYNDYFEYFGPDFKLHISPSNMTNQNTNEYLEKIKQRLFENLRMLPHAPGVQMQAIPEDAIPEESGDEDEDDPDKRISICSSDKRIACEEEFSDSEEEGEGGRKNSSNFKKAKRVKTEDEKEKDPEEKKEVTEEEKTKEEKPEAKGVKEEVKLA

IC50 (HDAC6 human recombinant) | IC50 (HDAC1) | Structure (SMILES)
158 nM | > 10000 nM | O=c1n(Cc2ccc(-c3nnc(C(F)F)o3)cc2F)c2ccccc2n1C1COC1 [Compound 37, 1-(4-(5-(difluoromethyl)-1,3,4-oxadiazole-2-yl)-2-fluorobenzyl)-3-(oxetan-3-yl)-1,3-dihydro-2H-benzo[d]imidazole-2-one]
12 nM | > 10000 nM | CN1CCC[C@@H](n2c(=O)n(Cc3ccc(-c4nnc(C(F)F)o4)cn3)c3cc(F)c(-c4cccnc4)cc32)C1 [Compound 274, (R)-1-((5-(5-(difluoromethyl)-1,3,4-oxadiazole-2-yl)pyridine-2-yl)methyl)-6-fluoro-3-(1-methylpiperidine-3-yl)-5-(pyridine-3-yl)-1,3-dihydro-2H-benzo[d]imidazole-2-one]
84 nM | > 10000 nM | Cc1oncc1C(=O)N1CCC(n2c(=O)n(Cc3ccc(-c4nnc(C(F)F)o4)cn3)c3cc(F)ccc32)CC1 [Compound 65, 3-((5-(5-(difluoromethyl)-1,3,4-oxadiazole-2-yl)pyridine-2-yl)methyl)-5-fluoro-1-(1-(5-methylisooxazole-4-carbonyl)piperidine-4-yl)-1,3-dihydro-2H-benzo[d]imidazole-2-one]
739 nM | > 10000 nM | CS(=O)(=O)N1CCC(n2c(=O)n(Cc3ccc(-c4nnc(C(F)F)o4)cc3)c3ncccc32)CC1 [Compound 205, 3-(4-(5-(difluoromethyl)-1,3,4-oxadiazole-2-yl)benzyl)-1-(1-(methylsulfonyl)piperidine-4-yl)-1,3-dihydro-2H-imidazo[4,5-b]pyridine-2-one]
131 nM | > 10000 nM | CN(C)CCn1c(=O)n(Cc2ccc(-c3nnc(C(F)F)o3)cc2F)c2ccccc21 [Compound 36, 1-(4-(5-(difluoromethyl)-1,3,4-oxadiazole-2-yl)-2-fluorobenzyl)-3-(2-(dimethylamino)ethyl)-1,3-dihydro-2H-benzo[d]imidazole-2-one]
18 nM | > 10000 nM | CCN1CCC(n2c(=O)n(Cc3ccc(-c4nnc(C(F)F)o4)cn3)c3ccc(-c4cccnc4)cc32)CC1 [Compound 281, 1-((5-(5-(difluoromethyl)-1,3,4-oxadiazole-2-yl)pyridine-2-yl)methyl)-3-(1-ethylpiperidine-4-yl)-5-(pyridine-3-yl)-1,3-dihydro-2H-benzo[d]imidazole-2-one]
50 nM | > 10000 nM | CS(=O)(=O)N1CCC(n2c(=O)n(Cc3ccc(-c4nnc(C(F)F)o4)cn3)c3cc(C(F)(F)F)ccc32)CC1 [Compound 195, 3-((5-(5-(difluoromethyl)-1,3,4-oxadiazole-2-yl)pyridine-2-yl)methyl)-1-(1-(methylsulfonyl)piperidine-4-yl)-5-(trifluoromethyl)-1,3-dihydro-2H-benzo[d]imidazole-2-one]
46 nM | > 10000 nM | CC(=O)N1CCC(n2c(=O)n(Cc3ccc(-c4nnc(C(F)F)o4)cc3F)c3cc(F)ccc32)CC1 [Compound 75]
44 nM | > 10000 nM | O=c1oc2cc(C3CCN(C4COC4)CC3)c(F)cc2n1Cc1ccc(-c2nnc(C(F)F)o2)cn1 [Compound 336, 3-((5-(5-(difluoromethyl)-1,3,4-oxadiazole-2-yl)pyridine-2-yl)methyl)-5-fluoro-6-(1-(oxetan-3-yl)piperidine-4-yl)benzo[d]oxazole-2(3H)-one]
12 nM | > 10000 nM | O=c1n(Cc2ccc(-c3nnc(C(F)F)o3)cn2)c2cc(F)c(-c3cccnc3)cc2n1C1CN(C2COC2)C1 [Compound 311, 1-((5-(5-(difluoromethyl)-1,3,4-oxadiazole-2-yl)pyridine-2-yl)methyl)-6-fluoro-3-(1-(oxetan-3-yl)azetidine-3-yl)-5-(pyridine-3-yl)-1,3-dihydro-2H-benzo[d]imidazole-2-one]
57 nM | > 10000 nM | O=C(c1ccncc1)N1CCC(n2c(=O)n(Cc3ccc(-c4nnc(C(F)F)o4)cn3)c3cc(F)ccc32)CC1 [Compound 63, 3-((5-(5-(difluoromethyl)-1,3,4-oxadiazole-2-yl)pyridine-2-yl)methyl)-5-fluoro-1-(1-isonicotinoylpiperidine-4-yl)-1,3-dihydro-2H-benzo[d]imidazole-2-one]
23 nM | > 10000 nM | O=c1sc2cc(-c3cnn(C4CCN(C5COC5)CC4)c3)ccc2n1Cc1ccc(-c2nnc(C(F)F)o2)cn1 [Compound 355, 3-((5-(5-(difluoromethyl)-1,3,4-oxadiazole-2-yl)pyridine-2-yl)methyl)-6-(1-(1-(oxetan-3-yl)piperidine-4-yl)-1H-pyrazole-4-yl)benzo[d]thiazole-2(3H)-on]
16 nM | > 10000 nM | CC(C)N1CCC(n2cc(-c3ccc4c(c3)sc(=O)n4Cc3ccc(-c4nnc(C(F)F)o4)cn3)cn2)CC1 [Compound 354, 3-((5-(5-(difluoromethyl)-1,3,4-oxadiazole-2-yl)pyridine-2-yl)methyl)-6-(1-(1-isopropylpiperidine-4-yl)-1H-pyrazole-4-yl)benzo[d]thiazole-2(3H)-one]
51 nM | > 10000 nM | CN1CCC(n2c(=O)n(Cc3ccc(-c4nnc(C(F)F)o4)cc3)c3cc(F)c(F)cc32)CC1 [Compound 95, 1-(4-(5-(difluoromethyl)-1,3,4-oxadiazole-2-yl)benzyl)-5,6-difluoro-3-(1-methylpiperidine-4-yl)-1,3-dihydro-2H-benzo[d]imidazole-2-one]
54 nM | > 10000 nM | CC(F)(F)CN1CCC(n2c(=O)n(Cc3ccc(-c4nnc(C(F)F)o4)cn3)c3cc(Cl)ccc32)CC1 [Compound 234, 5-chloro-3-((5-(5-(difluoromethyl)-1,3,4-oxadiazole-2-yl)pyridine-2-yl)methyl)-1-(1-(2,2-difluoropropyl)piperidine-4-yl)-1,3-dihydro-2H-benzo[d]imidazole-2-one]
9 nM | > 10000 nM | Cn1c(=O)n(Cc2ccc(-c3nnc(C(F)F)o3)cn2)c2ccc(-c3cn[nH]c3)cc21 [Compound 247, 1-((5-(5-(difluoromethyl)-1,3,4-oxadiazole-2-yl)pyridine-2-yl)methyl)-3-methyl-5-(1H-pyrazole-4-yl)-1,3-dihydro-2H-benzo[d]imidazole-2-one]
18 nM | > 10000 nM | Cn1c(=O)n(Cc2ccc(-c3nnc(C(F)F)o3)cn2)c2ccc(-c3ccc(S(C)(=O)=O)cc3)cc21 [Compound 220, 1-((5-(5-(difluoromethyl)-1,3,4-oxadiazole-2-yl)pyridine-2-yl)methyl)-3-methyl-5-(4-(methylsulfonyl)phenyl)-1,3-dihydro-2H-benzo[d]imidazole-2-one]
11 nM | > 10000 nM | O=c1n(Cc2ccc(-c3nnc(C(F)F)o3)cn2)c2cc(F)c(-c3ccncc3)cc2n1[C@@H]1CCCN(C2COC2)C1 [Compound 294, (R)-1-((5-(5-(difluoromethyl)-1,3,4-oxadiazole-2-yl)pyridine-2-yl)methyl)-6-fluoro-3-(1-(oxetan-3-yl)piperidine-3-yl)-5-(pyridine-4-yl)-1,3-dihydro-2H-benzo[d]imidazole-2-one]
38 nM | > 10000 nM | CC(=O)N1CCC(n2c(=O)n(Cc3ccc(-c4nnc(C(F)F)o4)cc3F)c3cc(C(F)(F)F)ccc32)CC1 [Compound 180, 1-(1-acetylpiperidine-4-yl)-3-(4-(5-(difluoromethyl)-1,3,4-oxadiazole-2-yl)-2-fluorobenzyl)-5-(trifluoromethyl)-1,3-dihydro-2H-benzo[d]imidazole-2-one]
